Results published in US20110152313A1 (MACQUARIE UNIVERSITY, priority 2008, published 2011).

Key:
Assay in all cases: kinase binding screen (kinase-tagged T7 phage, qPCR), % Ctrl
ULK1 = biological target: T1, ULK1 (Homo sapiens, UniProt O75385)
T1 sequence (O75385 1-1050): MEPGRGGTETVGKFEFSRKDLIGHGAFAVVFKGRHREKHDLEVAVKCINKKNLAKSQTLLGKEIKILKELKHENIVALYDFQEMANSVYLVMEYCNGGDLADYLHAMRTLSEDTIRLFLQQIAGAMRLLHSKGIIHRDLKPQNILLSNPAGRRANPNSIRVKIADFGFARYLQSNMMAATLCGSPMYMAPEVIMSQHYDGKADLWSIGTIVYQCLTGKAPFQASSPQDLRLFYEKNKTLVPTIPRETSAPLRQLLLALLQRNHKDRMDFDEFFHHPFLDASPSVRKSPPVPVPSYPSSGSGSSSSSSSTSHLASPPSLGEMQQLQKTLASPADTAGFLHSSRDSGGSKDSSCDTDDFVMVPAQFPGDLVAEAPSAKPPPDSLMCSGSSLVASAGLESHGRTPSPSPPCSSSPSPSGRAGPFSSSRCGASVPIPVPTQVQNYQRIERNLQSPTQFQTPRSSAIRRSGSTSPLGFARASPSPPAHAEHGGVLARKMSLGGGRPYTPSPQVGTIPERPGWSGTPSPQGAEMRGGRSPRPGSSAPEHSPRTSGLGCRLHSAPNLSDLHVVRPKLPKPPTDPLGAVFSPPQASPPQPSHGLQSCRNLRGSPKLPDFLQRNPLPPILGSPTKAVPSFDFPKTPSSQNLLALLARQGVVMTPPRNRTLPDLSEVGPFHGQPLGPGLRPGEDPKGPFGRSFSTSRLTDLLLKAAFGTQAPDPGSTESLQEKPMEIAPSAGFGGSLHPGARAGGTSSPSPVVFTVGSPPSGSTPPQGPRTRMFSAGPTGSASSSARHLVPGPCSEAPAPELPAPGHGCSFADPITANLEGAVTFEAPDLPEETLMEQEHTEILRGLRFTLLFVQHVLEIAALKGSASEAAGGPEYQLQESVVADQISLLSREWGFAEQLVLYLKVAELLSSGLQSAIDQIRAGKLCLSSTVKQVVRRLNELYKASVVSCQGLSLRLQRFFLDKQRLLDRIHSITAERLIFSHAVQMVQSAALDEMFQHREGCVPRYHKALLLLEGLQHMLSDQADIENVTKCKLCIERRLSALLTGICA
In short: (§1)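 Steps: grow T7 phage displaying kinase in BL21-derived E. coli; clarify lysate; combine with ligand-liganded, blocked beads and compound (single concentration, diluted from 40× DMSO stock); elute; quantify kinase by qPCR.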

TBK1 = biological target: T2, TBK1 (Homo sapiens, UniProt Q9UHD2)
T2 sequence (Q9UHD2 1-729): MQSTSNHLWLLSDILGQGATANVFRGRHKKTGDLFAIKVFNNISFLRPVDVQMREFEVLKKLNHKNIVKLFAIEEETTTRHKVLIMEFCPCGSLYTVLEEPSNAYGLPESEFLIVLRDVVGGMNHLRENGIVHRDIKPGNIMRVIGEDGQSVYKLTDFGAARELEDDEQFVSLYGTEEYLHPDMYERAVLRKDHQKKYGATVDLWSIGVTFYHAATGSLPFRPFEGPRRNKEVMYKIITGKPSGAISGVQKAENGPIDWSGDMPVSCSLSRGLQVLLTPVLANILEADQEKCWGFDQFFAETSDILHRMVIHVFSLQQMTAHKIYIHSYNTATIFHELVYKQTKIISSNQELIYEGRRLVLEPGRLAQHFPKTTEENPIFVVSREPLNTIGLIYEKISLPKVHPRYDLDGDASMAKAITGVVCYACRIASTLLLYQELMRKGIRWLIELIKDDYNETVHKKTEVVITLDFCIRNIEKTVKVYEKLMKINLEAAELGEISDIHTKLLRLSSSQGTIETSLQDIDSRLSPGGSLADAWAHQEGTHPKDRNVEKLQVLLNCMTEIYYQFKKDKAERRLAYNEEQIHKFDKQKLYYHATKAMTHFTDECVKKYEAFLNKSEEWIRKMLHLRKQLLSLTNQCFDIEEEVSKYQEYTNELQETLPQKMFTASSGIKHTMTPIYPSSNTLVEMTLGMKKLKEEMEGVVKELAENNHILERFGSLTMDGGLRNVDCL
In short: as §1

CDK7 = CDK7 (Homo sapiens, UniProt P50613)
In short: as §1

BMPR1B = BMPR1B (Homo sapiens, UniProt O00238)
In short: as §1

MKNK2 = MKNK2 (Homo sapiens, UniProt Q9HBH9)
In short: as §1

MKNK2, sequence (Q9HBH9 whole entry, species assumed): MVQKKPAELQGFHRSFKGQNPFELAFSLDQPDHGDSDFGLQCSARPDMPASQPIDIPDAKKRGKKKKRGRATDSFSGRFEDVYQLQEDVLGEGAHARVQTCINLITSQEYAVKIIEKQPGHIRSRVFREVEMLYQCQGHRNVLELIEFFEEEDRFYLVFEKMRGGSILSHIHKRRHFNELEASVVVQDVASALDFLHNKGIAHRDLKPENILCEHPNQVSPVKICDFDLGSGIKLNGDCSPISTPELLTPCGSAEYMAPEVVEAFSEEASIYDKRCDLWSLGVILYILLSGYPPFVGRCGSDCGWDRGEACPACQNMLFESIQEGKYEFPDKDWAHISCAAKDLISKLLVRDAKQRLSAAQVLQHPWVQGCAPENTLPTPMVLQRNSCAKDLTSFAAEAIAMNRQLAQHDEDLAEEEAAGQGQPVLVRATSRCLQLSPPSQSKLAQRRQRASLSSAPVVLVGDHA
CDK7, sequence (P50613 whole entry): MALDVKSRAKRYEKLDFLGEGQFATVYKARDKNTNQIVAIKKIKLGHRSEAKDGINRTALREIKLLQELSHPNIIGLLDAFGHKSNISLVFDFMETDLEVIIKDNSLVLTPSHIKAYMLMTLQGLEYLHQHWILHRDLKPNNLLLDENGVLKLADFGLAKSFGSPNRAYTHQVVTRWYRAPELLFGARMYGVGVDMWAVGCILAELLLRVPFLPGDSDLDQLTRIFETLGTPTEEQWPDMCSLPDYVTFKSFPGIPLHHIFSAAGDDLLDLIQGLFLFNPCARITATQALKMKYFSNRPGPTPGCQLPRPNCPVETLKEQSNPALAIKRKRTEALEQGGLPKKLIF
BMPR1B, sequence (O00238 14-502): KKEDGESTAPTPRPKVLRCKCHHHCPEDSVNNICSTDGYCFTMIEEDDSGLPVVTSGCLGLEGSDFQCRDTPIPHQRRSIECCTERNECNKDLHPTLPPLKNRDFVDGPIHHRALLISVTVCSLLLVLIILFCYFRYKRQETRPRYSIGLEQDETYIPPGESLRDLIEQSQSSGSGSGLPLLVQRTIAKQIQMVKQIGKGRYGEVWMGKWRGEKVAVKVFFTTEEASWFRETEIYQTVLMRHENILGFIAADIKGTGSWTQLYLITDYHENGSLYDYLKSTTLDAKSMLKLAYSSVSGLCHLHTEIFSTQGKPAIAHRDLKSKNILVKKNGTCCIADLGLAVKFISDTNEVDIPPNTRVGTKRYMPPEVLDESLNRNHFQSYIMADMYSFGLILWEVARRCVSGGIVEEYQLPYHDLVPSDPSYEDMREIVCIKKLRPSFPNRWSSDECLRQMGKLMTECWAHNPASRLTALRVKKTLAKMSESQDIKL

| remaining activity at 10 µM (ULK1; 10 μM) [%] | remaining activity at 10 µM (TBK1; 10 μM) [%] | remaining activity at 10 µM (CDK7; 10 μM) [%] | remaining activity at 10 µM (BMPR1B; 10 μM) [%] | remaining activity at 10 µM (MKNK2; 10 μM) [%] | Structure (SMILES) | remaining activity at 1 µM (ULK1) [%] | remaining activity at 1 µM (TBK1) [%] | remaining activity at 1 µM (CDK7) [%] | remaining activity at 1 µM (BMPR1B) [%] | remaining activity at 1 µM (MKNK2) [%] |
| --- | --- | --- | --- | --- | --- | --- | --- | --- | --- | --- |
|  |  |  |  |  | Nc1nc2c(-c3cnc4ccccc4c3)nccc2[nH]1 [drawing 36, 4-(quinolin-3-yl)-1H-imidazo[4,5-c]pyridin-2-amine] | 91 | 79 | 100 | 0 | 100 |
| 20 | 78 | 66 | 78 | 69 | Nc1nc2c(-c3cc(Br)c(Br)[nH]3)nccc2[nH]1 [Ageladine A, ageladine A, reference compound] | 62 | 84 | 79 | 100 | 2.5 |
|  |  |  |  |  | Nc1nc2c(-c3ccccn3)nccc2[nH]1 [drawing 35, 4-(pyrid-2-yl)-1H-imidazo[4,5-c]pyridin-2-amine] | 33 | 50 | 30 | 85 | 86 |
